These results are taken from publication PMC13114161 (Antibiotics, 2026).

In data set [1] the test system is P. aeruginosa ATCC 27853 ompH mutants EPIR32, EPIR36, EPIR38. Briefly: microbe, parasite or virus in culture. The class given is cell-based, Pseudomonas aeruginosa. The procedure:
(§1) MIC assays for potentiation of antimicrobial activity against P. aeruginosa were performed as described previously.

Data set [2] concerns P. aeruginosa CDC AR-0232, AR-0248, AR-0249. In kind it is cell-based, Pseudomonas aeruginosa. The procedure: (§2) Frequency-of-resistance studies were carried out as described previously.
For data set [3], the system named is P. aeruginosa DA7232 (gyrA-T83I, parC-S80L). The data set is described as follows: Levofloxacin MIC potentiation. The class given is cell-based, Pseudomonas aeruginosa. The protocol:
as §1

The subject of a further data set is P. aeruginosa ATCC 27853. The class given is cell-based, Pseudomonas aeruginosa. The procedure:
OmpH is a homologous periplasmic chaperone that binds newly synthesized, unfolded outer membrane proteins (OMPs) and delivers them to the outer membrane for assembly by the BAM machinery, thereby preventing aggregation and facilitating proper membrane insertion.
as §2

The nature of the next data set: in vivo. The conditions noted are these: female, CD-1, mouse, iv. The procedure:
Thus, the safety and tolerability of TXA11114 was determined to find an optimum dosing capability. The maximum tolerated dose (MTD) of TXA11114 was assessed in female mice (CD-1, 6–8 weeks old) at the University of North Texas Health Science Center (UNTHSC). TXA11114 was administered IV to groups of three female mice. Mice were administered TXA11114 in the range 30–240 mg/kg (IV bolus). […] As doses are tolerated (not resulting in effects such as mortality, convulsions, or other severe morbidity), they are increased. Survival and general observations as to the tolerability of the administered dose started immediately and continued for a period of 48 h after each dose was recorded.

The target in another data set is T1, Nav1.5 (peak current) (Homo sapiens, UniProt Q14524).
T1 construct: host or cells: HEK-293
The data set is described as follows: QPatch ion channel assay. The class given is cell-based. The settings on record: read-out: % Inhibition (n = 2), Nav1.5. An excerpt: (§3) The automated whole-cell patch-clamp (Qpatch HT) technique is used to record depolarizing currents, hNav1.5 and hCav1.2, and repolarizing potassium currents, hERG. Cells Recombinant HEK-293 cells stably transfected with human Nav1.5 cDNA, Recombinant HEK293 cell line expressing the human Cav1.2 (L-type voltage-gated calcium channel, hCav1.2 α1C/β2a/α2δ1, and recombinant CHO-K1 cells stably transfected with human hERG cDNA are used separately in each of these assays. The cells are harvested by Accutase and maintained in Serum-Free Medium at room temperature before assay. On the instrument, the cells are pipetted into each well of a 48-well plate in external solution. Test concentration stock solution is prepared in DMSO at 300× the final assay concentrations, and stored at −20 °C until the day of assay. On the day of the assay, an aliquot of the stock solution is thawed and diluted into external solution to make final test concentrations. A final concentration of 0.33% DMSO is maintained for each concentration of the assay compounds and controls. The assay is conducted at room temperature. Recording conditions hNav1.5 Peak current Onset and steady state block of peak Nav1.5 current are measured using a pulse pattern, repeated every 5 sec, consisting of a hyperpolarizing pulse to −120 mV for a 200 ms duration, depolarization to −15 mV amplitude for a 40 ms duration, followed by a step to 40 mV for 200 ms and finally a 100 ms ramp (1.2 V/s) to a holding potential of −80 mV. hCav1.2 currents are evoked following a 100 ms pulse to −60 mV followed by a 50 ms pulse to +10 mV before returning to the holding potential of −90 mV. This paradigm is delivered three times once every 20 s. Cells are held at −90 mV with a 5 s pulse to −60 mV every 20 s for a total of 120 s between each set of three pulses. The cell is held at −80 mV. Then the cell is depolarized to +40 mV for 500 ms and then to −80 mV over a 100 ms ramp to elicit the hERG tail current. This paradigm is delivered once every 8 s. The Extracellular Solution (control) is applied first and the cell is stabilized in the solution for 5 min. Then the test compound is applied from low to high concentrations sequentially on the same cell. The cells are incubated with each test concentration for 5 min. Reference compounds Tetracaine Nifedipine and E-4031 are tested concurrently for hNav1.5, hCav1.2 and hERG, respectively, at multiple concentrations to obtain an IC50 value.
(§4) The amplitude of the sodium current is calculated by measuring the difference between the peak inward current on stepping to −10 mV (i.e., peak current) and the leak current. The sodium current is assessed in vehicle control conditions and then at the end of each five (5)-minute compound application. Individual cell results are normalized to the vehicle control amplitude and the mean ± SEM is calculated for each compound concentration. These values are then plotted and estimated IC50 curve fits are calculated. The maximum inward current elicited on stepping to +10 mV for 50msec from −60 mV is measured. Compound interaction is assessed by dividing post-current amplitude (at the end of each three (3)-minute compound application) by the vehicle control amplitude and the mean calculated for each compound concentration. These values are then plotted and estimated IC50 curve fits are calculated. The percent inhibition of the hERG channel is calculated by comparing the peak (hERG tail) current amplitude before and after application of the compound (the current difference is normalized to vehicle control values).
A general note: In patch-clamp work, channel activity is measured electrically.

In another data set the target is T2, hERG (Homo sapiens, UniProt Q12809).
T2 construct: host or cells: CHO-K1
The data set is described as follows: QPatch ion channel assay. The class given is cell-based. The conditions noted are these: CHO-K1 cells stably transfected with human hERG, read-out: % Inhibition (n = 2), hERG.
From the text: as §3, §4

The next data set has as its target T3, Cav1.2 (Homo sapiens, UniProt Q13936).
T3 construct: host or cells: HEK293
Briefly: QPatch ion channel assay. In kind it is cell-based. The conditions noted are these: read-out: % Inhibition (n = 2), Cav1.2.
From the text: as §3, §4

A short description of another data set: Aqueous solubility. The conditions noted are these: for solubility at 6 h: system solution (SS), pH 7.4, aqueous buffer, kinetic from dmso stock. The class given is physicochemical. The procedure:
The aqueous solubility of TXA11114 was evaluated in system solution (SS) at pH 7.4. Known concentrations of TXA11114, prepared as DMSO stock solutions, were spiked into SS and incubated for 6 h at room temperature with constant shaking (250 rpm). Caffeine and diethylstilbestrol (DES) were used as positive controls. […] Aliquots (500 µL) of diluted test and control compounds were dispensed into 96-deep-well plates in triplicate, sealed, and incubated as described above. Following incubation, 300 µL samples were withdrawn and filtered using 0.22 µm filter plates. Optical density at λ_max was measured using a UV spectrophotometer.

Where [4] appears, read: Pseudomonas aeruginosa, ATCC27853, EPIR32.
[5] abbreviates: Pseudomonas aeruginosa, ATCC27853, EPIR38.

Converted amounts (≈) assume the structure as drawn. Like-named read-outs stand apart in the source and are kept apart here. Some results are limits rather than exact numbers.

T1 sequence (Q14524 whole entry): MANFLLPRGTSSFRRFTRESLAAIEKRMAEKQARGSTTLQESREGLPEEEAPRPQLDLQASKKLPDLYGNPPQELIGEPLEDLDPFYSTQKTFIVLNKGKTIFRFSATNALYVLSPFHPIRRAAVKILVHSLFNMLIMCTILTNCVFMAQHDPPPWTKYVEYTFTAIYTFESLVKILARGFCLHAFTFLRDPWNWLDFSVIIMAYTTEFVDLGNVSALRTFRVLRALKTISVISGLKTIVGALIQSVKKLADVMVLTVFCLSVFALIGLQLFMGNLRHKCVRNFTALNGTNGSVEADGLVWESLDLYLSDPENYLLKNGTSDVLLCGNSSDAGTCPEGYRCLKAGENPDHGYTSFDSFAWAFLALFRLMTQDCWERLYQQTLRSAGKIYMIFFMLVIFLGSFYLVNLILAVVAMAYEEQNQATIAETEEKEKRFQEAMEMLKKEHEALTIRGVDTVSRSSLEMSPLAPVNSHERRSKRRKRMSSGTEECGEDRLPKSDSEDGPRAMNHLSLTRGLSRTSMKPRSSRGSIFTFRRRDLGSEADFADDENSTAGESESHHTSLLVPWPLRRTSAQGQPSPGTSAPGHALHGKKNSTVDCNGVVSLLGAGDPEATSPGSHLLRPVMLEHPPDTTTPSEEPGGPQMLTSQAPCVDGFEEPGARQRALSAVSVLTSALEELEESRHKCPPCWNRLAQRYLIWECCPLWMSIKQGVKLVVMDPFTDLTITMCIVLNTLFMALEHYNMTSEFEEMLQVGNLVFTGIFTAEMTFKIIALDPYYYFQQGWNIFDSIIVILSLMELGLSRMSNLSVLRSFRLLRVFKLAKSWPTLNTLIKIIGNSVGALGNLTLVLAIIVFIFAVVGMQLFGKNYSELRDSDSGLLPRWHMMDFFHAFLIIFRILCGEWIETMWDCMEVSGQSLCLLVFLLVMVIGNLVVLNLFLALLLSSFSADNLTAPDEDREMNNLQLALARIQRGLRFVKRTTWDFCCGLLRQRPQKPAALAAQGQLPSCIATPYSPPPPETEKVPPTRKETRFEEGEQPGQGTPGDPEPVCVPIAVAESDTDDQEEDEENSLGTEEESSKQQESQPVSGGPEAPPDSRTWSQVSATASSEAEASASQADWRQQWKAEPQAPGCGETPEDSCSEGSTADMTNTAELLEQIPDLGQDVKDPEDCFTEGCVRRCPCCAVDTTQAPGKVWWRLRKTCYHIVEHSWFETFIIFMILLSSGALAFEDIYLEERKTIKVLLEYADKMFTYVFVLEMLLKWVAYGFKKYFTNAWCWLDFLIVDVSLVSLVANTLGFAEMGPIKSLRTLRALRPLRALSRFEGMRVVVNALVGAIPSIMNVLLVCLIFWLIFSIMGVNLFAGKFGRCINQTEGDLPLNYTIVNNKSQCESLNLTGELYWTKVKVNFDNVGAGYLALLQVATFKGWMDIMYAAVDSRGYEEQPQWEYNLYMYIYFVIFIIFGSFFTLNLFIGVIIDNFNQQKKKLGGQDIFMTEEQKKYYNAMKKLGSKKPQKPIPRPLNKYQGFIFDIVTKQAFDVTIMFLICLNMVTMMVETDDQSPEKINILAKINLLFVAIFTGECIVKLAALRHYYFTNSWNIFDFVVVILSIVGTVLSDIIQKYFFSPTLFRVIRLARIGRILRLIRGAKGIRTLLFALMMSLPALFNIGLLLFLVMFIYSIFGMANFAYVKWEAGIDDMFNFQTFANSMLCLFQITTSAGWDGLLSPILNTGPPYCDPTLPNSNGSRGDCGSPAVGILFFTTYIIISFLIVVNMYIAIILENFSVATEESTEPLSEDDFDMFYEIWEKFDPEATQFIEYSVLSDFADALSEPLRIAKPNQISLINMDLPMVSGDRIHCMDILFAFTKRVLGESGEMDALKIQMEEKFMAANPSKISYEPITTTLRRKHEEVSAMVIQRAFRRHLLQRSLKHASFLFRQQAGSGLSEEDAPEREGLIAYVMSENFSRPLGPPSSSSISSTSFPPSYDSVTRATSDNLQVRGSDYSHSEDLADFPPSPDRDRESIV
T2 sequence (Q12809 whole entry): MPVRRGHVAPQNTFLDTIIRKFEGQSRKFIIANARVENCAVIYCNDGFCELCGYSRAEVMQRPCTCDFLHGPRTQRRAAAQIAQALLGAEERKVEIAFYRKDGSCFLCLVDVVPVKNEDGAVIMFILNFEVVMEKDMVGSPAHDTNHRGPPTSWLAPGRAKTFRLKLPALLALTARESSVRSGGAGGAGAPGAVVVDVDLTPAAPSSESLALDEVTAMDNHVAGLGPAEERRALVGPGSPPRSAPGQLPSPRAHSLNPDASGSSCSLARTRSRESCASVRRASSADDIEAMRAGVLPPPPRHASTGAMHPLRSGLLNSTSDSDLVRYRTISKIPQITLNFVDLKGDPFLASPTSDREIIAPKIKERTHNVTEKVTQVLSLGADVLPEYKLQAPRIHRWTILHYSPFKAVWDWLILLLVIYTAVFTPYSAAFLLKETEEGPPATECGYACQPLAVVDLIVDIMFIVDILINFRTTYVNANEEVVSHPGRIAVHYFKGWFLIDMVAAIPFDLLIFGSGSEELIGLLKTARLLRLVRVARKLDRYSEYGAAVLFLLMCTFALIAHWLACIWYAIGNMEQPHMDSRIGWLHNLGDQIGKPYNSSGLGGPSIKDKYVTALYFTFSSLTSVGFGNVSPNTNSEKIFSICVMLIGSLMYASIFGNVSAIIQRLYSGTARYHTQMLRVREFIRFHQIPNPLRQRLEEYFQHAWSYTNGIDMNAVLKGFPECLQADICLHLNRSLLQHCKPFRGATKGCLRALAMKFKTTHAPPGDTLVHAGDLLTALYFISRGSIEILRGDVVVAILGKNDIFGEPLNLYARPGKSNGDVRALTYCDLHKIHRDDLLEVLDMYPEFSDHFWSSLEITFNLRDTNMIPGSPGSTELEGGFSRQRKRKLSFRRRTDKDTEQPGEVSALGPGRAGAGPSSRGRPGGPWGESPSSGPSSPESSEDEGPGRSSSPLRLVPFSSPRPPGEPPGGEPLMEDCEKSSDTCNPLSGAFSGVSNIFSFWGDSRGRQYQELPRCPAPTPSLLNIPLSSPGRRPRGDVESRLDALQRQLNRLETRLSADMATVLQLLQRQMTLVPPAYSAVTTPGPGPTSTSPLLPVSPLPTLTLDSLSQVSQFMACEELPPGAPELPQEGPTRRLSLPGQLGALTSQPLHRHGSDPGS

Turning to `C[C@H]1COc2c(N3CCN(C)CC3)c(F)cc3c(=O)c(C(=O)O)cn1c23` [Levofloxacin, levofloxacin], the MIC turned out to be 0.25 µg/mL in [1] (setting [4]); 0.5 µg/mL in [1] (setting [5]); 256 µg/mL in data set [3] (Pseudomonas aeruginosa, read-out: Levofloxacin MIC). Also, the “Frequency of Resistance” value is 1.68 × 10^−8 in data set [2] (CDC AR-0232, levofloxacin 4× MIC (32 μg/mL) alone); 8.64 × 10^−8 in [2] (CDC AR-0248, levofloxacin 4× MIC (64 μg/mL) alone); 2.15 × 10^−8 in [2] (CDC AR-0249, levofloxacin 4× MIC (256 μg/mL) alone); 3.80 × 10^−8 with P. aeruginosa ATCC 27853 (ATCC 27853, levofloxacin 4× MIC (4 μg/mL) alone).

For orientation: inhibition means the change of the read-out against control, counted positive when it falls. In general, solubility refers to how much of the substance goes into solution per volume. Low readings indicate little dissolved substance, high ones much dissolved substance. Turning to `NC[C@@H]1CN[C@H](CNC(=O)c2cc3ccc(-c4ccc(F)cc4)cc3[nH]2)C1` [TXA09155], the MTD at 48 h in “in vivo” turned out to be 30 mg/kg. Further, the inhibition at 5 min, 10 µM at Nav1.5 (peak current) was determined as 0.1%; at hERG it was 9.2%. Moreover, the inhibition at 3 min, 10 µM on Cav1.2 amounted to 12.7%. Also, the concentration in solution in the data set “Aqueous solubility” (solubility at 6 h) came to 155 ± 3 µM (≈ 56.8 µg/mL).

Usually Aqueous solubility stands for the concentration that dissolves in the medium under given conditions. `NCC(F)C[C@@H](N)CNC(=O)c1cc2ccc(-c3ccc(F)cc3)cc2[nH]1` (stereo partly drawn) [TXA11114, N-((2R)-2,5-diamino-4-fluoropentyl)-6-(4-fluorophenyl)-1H-indole-2-carboxamide]: the “Fold MIC reduction [LVX/EPI‐LVX]” value in data set [1] (EPI36) and in [1] (EPIR32) was 1 fold each time. Also, the “LVX MIC (+ EPI […])” value stood at 0.125 in [1] (EPI36) and 0.25 in data set [1] (EPIR32). Besides, the MIC in [1] (EPIR36, listed as TXA) is 200 µg/mL; in [1] (setting [4]), over 200 µg/mL; in data set [1] (Pseudomonas aeruginosa, ATCC27853, EPIR36), over 200 µg/mL; in data set [1] (setting [5]) it was 200 µg/mL. For the same compound, the “Frequency of Resistance” value is listed as <1.00 × 10^−10 in data set [2]; <1.47 × 10^−10 in data set [2] (CDC AR-0248, levofloxacin 4× MIC (64 μg/mL) + TXA11114 […]); <8.77 × 10^−11 in data set [2] (CDC AR-0249, levofloxacin 4× MIC (256 μg/mL) + TXA11114 […]); <1.04 × 10^−10 in the data set with P. aeruginosa ATCC 27853. Moreover, the MTD at 48 h is under 90 mg/kg in the data set “in vivo” (in vivo, Maximum tolerated dose (MTD), mice, IV bolus for TXA11114) and over 60 mg/kg in “in vivo”. Moreover, the inhibition at 5 min, 10 µM was -3.7% on Nav1.5 (peak current) and 10.9% on hERG. Also, on Cav1.2, the inhibition at 3 min, 10 µM is 0.2%. For the same compound, the “Levofloxacin MIC in presence of TXA11114” value in [3] (DA7232, […] TXA11114) was 1 µg/mL. Besides, the “FoR, resistance to TXA11114 alone” value was 1.8 × 10^−6 with P. aeruginosa ATCC 27853 (1X-MIC (100 µg/mL), ATCC 27853) and <3.09 × 10^−9 in the data set with P. aeruginosa ATCC 27853 (4X-MIC (400 µg/mL), ATCC 27853). For the same compound, in “Aqueous solubility” (pH 7.4), the Aqueous solubility was 145.9 ± 6.1 µM. This compound also came in with a solubility at 6 h in “Aqueous solubility” of over 145 µM.
